{"source": "paper PMC5005245", "about": "“Chemical and pharmacological evaluations on the extract of Scutellaria baicalensis Georgi (Huang-Qin) prepared by various extraction methods” (SpringerPlus, 2016)", "key": {"[1]": {"assay": "DPPH free radicals scavenging assay", "conditions": "concentration of sample which scavenges 50 % of free radicals; 30 min; mean ± SEM (n = 3)", "procedure": "The free radicals scavenging capacities (SC) were measured and compared using the DPPH assay (Chan et al. [2010]). Briefly, 5 µl of individual extract (0.625–10 mg/ml) was mixed with 195 μl of DPPH solution (24 mg/l) in a 96-well plate. The reaction was allowed to proceed in the dark for 30 min before the absorbance of the resultant solution was measured at 515 nm using a Micro-plate Absorbance Reader (Bio-Rad, CA, USA). Ascorbic acid (Sigma-Aldrich Chemicals Co., MO, USA) in distilled water served as the positive control. SC50 was estimated as the concentration of sample which scavenges 50 % of free radicals."}, "FRAP assay": {"assay": "FRAP assay", "conditions": "positive control, 1 mM was used; mean ± SEM (n = 3)", "procedure": "The FRAP assay was performed in a 96-well plate as described (Firuzi et al. [2005]). Briefly, 5 µl of each sample was mixed with 150 µl of freshly prepared FRAP reagent (250 mM acetate buffer, pH 3.6; 8.3 mM 2,4,6-tripyridyl-s-triazine dissolved in 40 mM HCl and 16.7 mM FeCl3·6H2O solution). After incubation at 37 °C for 30 min, the absorbance of the solution was measured at 593 nm. Different concentrations of Fe^2+ standard solution were used for the construction of the standard curve, and ascorbic acid was used as the positive control."}}}
{"smiles": "O=C1O[C@H]([C@@H](O)CO)C(O)=C1O", "note": "[Ascorbic acid]", "values": [{"measurement": "DPPH assay (SC50)", "setting": "[1]", "result": "0.107 ± 0.004", "unit": "mg/mL"}, {"measurement": "FRAP assay", "setting": "FRAP assay", "result": "2278 ± 15", "unit": "μmol Fe^2+/mg extract"}]}
